Assay results reported in patent US9926302B2, “Heteroaryl substituted heterocyclyl sulfones” (priority 2014, dated 2018).

Target: T1, Human CaV2.2 channels (Homo sapiens, UniProt Q00975)
T1 construct: expressed in transfected cells
Assay: Fluorescence assay for CaV2.2 channels using potassium depolarization to induce channel opening (FLIPR, Fluo 4)
Format: cell-based
Settings: 3 μM test compound; alternative assay buffer 30 mM KCl (inactivated channel state); HEK293 cells stably expressing human CaV2.2
From the text: In the process, the Ca^2+ influx is quantified in the FLIPR assay with the aid of a Ca^2+-sensitive dye (type Fluo-4, Molecular Probes Europe BV, Leiden, the Netherlands) in a fluorescent imaging plate reader (FLIPR 3, Molecular Devices, Sunnyvale, USA), as described hereinafter.
2.1 Fluorescence Assay for CaV2.2 Channels Using Potassium Depolarization to Induce Channel Opening
Human CaV2.2 channels were stably expressed in HEK293 cells together with alpha2-delta and beta subunits of voltage gated calcium channels. In addition, an inwardly rectifying potassium channel (Kir2.3) was stably expressed in these cells to augment control of the cell membrane potential by the concentration of extracellular potassium ions. Raise of the extracellular potassium concentration leads to depolarization of the membrane potential and thus regulates the voltage dependent state of CaV2.2 channels. For preparation, cells were seeded in black poly-D-lysine coated 96-well plates (Becton Dickinson, Biocoat 4640) in 100 μL medium [500 mL DMEM/F-12 plus Glutamax (Invitrogen 31331-093) plus 5.5 mL MEM NEAA 100× (Invitrogen 11140-035) plus 50 mL FBS decomplemented (Invitrogen 10270-106) plus 200 μg/mL Geneticin (Invitrogen 10131-027) plus 50 μg/mL Hygromycin B (Invitrogen 10687-010) plus 2 μg/mL Blasticidin (anti-bl5b Invivo-Gen) plus 0.2 μg/mL Puromycin (A 11138-03)] at a cell density of 30.000 cells per well. Plates were incubated at 37° C. (5% CO2) for 20 to 23 h. On the day of experiment medium was discarded and cells were loaded with Fluo 4 by addition of 100 μL of basic assay buffer (10 mM HEPES, 1 mM KCl, 149 mM NaCl, 0.8 mM CaCl2, 1.7 mM MgCl2, 10 mM Glucose, 0.1% BSA. pH 7.4) containing 2 μM Fluo 4 (Molecular Probes; F-14201), 0.01% pluronic acid (Molecular Probes; P-6866) and 2.5 mM probenecid (Molecular Probes; P36400). Cells were incubated in the dark at 25° C. for 60 min. Then dye containing buffer was discarded and 100 μL basic (1 mM KCl) or alternative (30 mM KCl) assay buffer was added. The alternative assay buffer contained altered concentrations of KCl (30 mM) and NaCl (120 mM) and was used in order to promote the inactivated channel state. After that 25 μL of basic or alternative assay buffer with or without test compound were added and cells were incubated again in the dark at 25° C. for 15 min. Fluorescence intensity was measured on a FLIPR 3 instrument (Molecular Devices Corp., Sunnyvale, Calif.) with excitation at 480 nm and emission at 535 nm. After continuously reading fluorescence for 30 sec, 50 μL of basic assay buffer containing 210 mM KCl (NaCl omitted) were added for depolarization. Peak fluorescent signal intensity was determined and the amplitude of the peak signal, normalized to base line, was used to measure channel inhibition by test compounds.

T1 sequence (P54289 947-1103): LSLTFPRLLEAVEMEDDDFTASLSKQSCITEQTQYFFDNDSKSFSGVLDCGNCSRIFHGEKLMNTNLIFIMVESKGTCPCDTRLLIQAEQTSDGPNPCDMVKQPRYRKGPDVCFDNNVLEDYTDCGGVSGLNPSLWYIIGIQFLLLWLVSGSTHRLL
T1 sequence (P54289 25-946): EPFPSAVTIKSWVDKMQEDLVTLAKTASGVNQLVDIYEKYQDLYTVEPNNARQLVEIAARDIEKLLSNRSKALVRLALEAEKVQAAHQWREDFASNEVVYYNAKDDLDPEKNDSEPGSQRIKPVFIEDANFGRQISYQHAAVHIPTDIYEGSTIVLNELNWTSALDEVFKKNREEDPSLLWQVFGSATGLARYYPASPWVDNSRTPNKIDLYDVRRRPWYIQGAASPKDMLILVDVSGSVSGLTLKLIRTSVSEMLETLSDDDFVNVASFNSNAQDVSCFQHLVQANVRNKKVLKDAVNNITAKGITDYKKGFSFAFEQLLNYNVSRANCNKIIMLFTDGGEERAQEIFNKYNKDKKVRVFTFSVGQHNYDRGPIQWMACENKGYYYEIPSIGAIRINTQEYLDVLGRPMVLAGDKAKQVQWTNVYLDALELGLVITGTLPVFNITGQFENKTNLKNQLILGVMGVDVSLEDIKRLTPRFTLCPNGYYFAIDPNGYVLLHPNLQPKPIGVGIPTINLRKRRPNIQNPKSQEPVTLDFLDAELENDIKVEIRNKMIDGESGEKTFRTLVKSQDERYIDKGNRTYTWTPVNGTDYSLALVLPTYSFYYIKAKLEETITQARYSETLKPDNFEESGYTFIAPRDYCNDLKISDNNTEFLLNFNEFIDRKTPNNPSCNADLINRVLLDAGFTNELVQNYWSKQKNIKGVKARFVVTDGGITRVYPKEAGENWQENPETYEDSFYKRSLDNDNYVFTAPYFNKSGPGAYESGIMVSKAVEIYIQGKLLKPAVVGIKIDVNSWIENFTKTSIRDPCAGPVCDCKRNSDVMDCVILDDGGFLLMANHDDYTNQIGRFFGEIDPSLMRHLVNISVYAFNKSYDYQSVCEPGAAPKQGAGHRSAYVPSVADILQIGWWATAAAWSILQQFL
T1 sequence (P54284 whole entry, further chain): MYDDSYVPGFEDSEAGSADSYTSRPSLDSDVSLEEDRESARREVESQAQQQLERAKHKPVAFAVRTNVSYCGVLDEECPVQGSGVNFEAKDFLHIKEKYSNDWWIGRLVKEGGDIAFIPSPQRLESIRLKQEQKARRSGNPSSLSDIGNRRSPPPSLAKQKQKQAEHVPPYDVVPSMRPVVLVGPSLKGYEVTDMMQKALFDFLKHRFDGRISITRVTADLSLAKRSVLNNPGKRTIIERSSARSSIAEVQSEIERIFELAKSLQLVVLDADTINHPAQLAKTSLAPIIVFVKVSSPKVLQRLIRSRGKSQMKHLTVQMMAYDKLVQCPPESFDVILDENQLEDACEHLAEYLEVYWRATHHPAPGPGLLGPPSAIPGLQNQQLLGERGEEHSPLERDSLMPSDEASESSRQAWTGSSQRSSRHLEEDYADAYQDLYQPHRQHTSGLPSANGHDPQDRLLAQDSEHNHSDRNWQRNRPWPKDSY
T1 sequence (Q00975 whole entry): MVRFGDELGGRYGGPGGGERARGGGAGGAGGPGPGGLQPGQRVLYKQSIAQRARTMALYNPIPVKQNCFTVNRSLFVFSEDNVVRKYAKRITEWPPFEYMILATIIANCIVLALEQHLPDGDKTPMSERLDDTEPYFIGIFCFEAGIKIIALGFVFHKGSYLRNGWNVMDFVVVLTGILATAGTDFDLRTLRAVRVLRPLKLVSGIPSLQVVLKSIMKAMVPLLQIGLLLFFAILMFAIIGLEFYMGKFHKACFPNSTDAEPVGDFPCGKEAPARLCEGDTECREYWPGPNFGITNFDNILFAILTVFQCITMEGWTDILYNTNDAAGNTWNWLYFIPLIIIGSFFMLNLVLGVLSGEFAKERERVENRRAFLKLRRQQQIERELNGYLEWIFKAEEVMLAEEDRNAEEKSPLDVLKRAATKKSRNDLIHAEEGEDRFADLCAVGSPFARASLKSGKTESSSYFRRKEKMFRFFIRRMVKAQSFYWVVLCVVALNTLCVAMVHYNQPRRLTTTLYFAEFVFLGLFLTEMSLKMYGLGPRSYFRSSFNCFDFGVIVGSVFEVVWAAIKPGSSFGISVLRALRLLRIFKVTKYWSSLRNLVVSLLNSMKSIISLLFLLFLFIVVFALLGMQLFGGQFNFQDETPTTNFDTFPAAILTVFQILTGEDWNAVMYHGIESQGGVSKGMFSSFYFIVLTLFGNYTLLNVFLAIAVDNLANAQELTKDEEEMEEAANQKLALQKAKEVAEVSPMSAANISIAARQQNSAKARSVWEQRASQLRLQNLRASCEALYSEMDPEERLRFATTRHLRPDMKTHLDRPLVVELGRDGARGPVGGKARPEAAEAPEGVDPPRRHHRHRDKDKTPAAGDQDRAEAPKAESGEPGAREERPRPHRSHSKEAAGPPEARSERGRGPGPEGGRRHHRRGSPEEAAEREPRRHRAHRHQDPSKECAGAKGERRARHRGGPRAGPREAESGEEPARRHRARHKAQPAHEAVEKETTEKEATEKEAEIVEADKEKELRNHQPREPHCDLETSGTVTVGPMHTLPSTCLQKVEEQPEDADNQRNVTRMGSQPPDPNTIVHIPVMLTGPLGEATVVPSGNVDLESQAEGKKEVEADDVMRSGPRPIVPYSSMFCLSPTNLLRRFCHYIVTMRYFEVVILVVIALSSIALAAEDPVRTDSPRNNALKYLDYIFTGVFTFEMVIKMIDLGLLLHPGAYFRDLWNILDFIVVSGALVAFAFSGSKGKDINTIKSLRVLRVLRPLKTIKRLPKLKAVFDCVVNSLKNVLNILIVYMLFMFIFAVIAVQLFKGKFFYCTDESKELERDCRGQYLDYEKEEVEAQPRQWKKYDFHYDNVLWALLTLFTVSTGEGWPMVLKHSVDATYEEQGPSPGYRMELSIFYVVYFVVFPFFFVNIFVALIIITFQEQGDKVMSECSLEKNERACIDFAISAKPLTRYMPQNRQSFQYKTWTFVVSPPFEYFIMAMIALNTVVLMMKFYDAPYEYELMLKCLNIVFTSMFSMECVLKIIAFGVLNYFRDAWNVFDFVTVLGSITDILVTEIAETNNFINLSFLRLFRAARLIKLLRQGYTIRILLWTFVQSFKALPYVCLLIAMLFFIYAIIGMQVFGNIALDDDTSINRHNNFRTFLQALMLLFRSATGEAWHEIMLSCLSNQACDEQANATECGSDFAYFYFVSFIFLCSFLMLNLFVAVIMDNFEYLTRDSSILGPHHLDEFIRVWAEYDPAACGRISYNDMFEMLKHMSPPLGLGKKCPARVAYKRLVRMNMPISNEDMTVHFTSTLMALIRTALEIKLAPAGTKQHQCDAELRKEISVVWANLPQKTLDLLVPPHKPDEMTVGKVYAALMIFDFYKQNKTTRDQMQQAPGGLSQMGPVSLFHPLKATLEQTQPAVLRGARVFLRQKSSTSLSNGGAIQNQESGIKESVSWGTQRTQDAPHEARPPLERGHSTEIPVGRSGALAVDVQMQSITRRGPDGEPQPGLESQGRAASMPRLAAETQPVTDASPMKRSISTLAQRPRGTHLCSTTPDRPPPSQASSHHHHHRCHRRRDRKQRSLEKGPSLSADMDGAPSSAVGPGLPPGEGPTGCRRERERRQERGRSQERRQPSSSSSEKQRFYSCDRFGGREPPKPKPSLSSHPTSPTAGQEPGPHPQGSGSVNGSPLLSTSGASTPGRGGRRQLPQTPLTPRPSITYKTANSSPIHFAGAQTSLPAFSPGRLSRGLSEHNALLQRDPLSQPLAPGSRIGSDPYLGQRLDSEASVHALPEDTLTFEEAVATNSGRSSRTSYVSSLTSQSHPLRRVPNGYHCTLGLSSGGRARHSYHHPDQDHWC

Row | Compound | Activity Category: %-Inhib (CaV2.2) @3 μM @30 mM KCl
1 | CC1(S(=O)(=O)c2cccc(C(F)(F)F)c2)CCOC(COc2cnc(C3CC3)cn2)C1 (single isomer, unassigned) [SC-133, 2-Cyclopropyl-5-[[4-methyl-4-[[3-(trifluoromethyl)phenyl]sulfonyl]-tetrahydro-pyran-2-yl]-methoxy]-pyrazine] | A (%-Inhibition >95%)
2 | CC1(S(=O)(=O)c2cccc(Cl)c2)CCOC(c2ncc(S(C)(=O)=O)cc2Cl)C1 (centres unmarked) [SC-440, 3-Chloro-2-[4-[(3-chlorophenyl)sulfonyl]-4-methyl-tetrahydro-pyran-2-yl]-5-methylsulfonyl-pyridine] | B (%-Inhibition >75% up to ≤95%)
3 | CC1(S(=O)(=O)c2cccc(Cl)c2)CCOC(c2ncc(S(C)(=O)=O)cc2Cl)C1 (centres unmarked) [SC-439, 3-Chloro-2-[4-[(3-chlorophenyl)sulfonyl]-4-methyl-tetrahydro-pyran-2-yl]-5-methylsulfonyl-pyridine] | C (%-Inhibition >40% up to ≤75%)
4 | COc1cc(C#N)c(C2CC(C)(S(=O)(=O)c3cccc(C(F)(F)F)c3)CCO2)cn1 (centres unmarked) [SC-261, 2-Methoxy-5-[4-methyl-4-[[3-(trifluoromethyl)phenyl]sulfonyl]-tetrahydro-pyran-2-yl]-isonicotinonitrile] | C (%-Inhibition >40% up to ≤75%)
5 | CCC1(S(=O)(=O)c2cccc(C(F)(F)F)c2)CCOC(c2ccc(C)nc2C)C1 (centres unmarked) [SC-318, 3-[4-Ethyl-4-[[3-(trifluoromethyl)phenyl]sulfonyl]-tetrahydro-pyran-2-yl]-2,6-dimethyl-pyridine] | B (%-Inhibition >75% up to ≤95%)
6 | Cc1cc(S(C)(=O)=O)cnc1C1CC(C)(S(=O)(=O)c2cccc(OC(F)(F)F)c2)CCO1 (centres unmarked) [SC-450, 3-Methyl-5-methylsulfonyl-2-[4-methyl-4-[[3-(trifluoromethyloxy)-phenyl]sulfonyl]-tetrahydro-pyran-2-yl]-pyridine] | C (%-Inhibition >40% up to ≤75%)

Same assay, conditions: HEK293, 3 μM test compound; alternative assay buffer 30 mM KCl (inactivated channel state); HEK293 cells stably expressing human CaV2.2; read-out: Activity Category: %-Inhib (CaV2.2) @3 μM @30 mM KCl

Row | Compound | inhibition at 3 µM
7 | CN(C)c1cnc(C2CC(C)(S(=O)(=O)c3cccc(C(F)(F)F)c3)CCO2)cn1 (centres unmarked) [SC-421, Dimethyl-[5-[4-methyl-4-[[3-(trifluoromethyl)phenyl]sulfonyl]-tetrahydro-pyran-2-yl]-pyrazin-2-yl]-amine] | 75 to 95%
8 | CCC1(S(=O)(=O)c2cccc(C(F)(F)F)c2)CCOC(c2nc(C3CC3)no2)C1 (centres unmarked) [SC-202, 3-Cyclopropyl-5-[4-ethyl-4-[[3-(trifluoromethyl)phenyl]sulfonyl]-tetrahydro-pyran-2-yl]-[1,2,4]oxadiazole] | 75 to 95%
9 | COc1cc(C)c(C2CC(C)(S(=O)(=O)c3cccc(C(F)(F)F)c3)CCO2)cn1 (centres unmarked) [SC-248, 2-Methoxy-4-methyl-5-[4-methyl-4-[[3-(trifluoromethyl)phenyl]sulfonyl]-tetrahydro-pyran-2-yl]-pyridine] | 75 to 95%
10 | CC1(S(=O)(=O)c2cccc(C(F)(F)F)c2)CCOC(c2cnc(C(F)(F)F)nc2)C1 (centres unmarked) [SC-304, 5-[4-Methyl-4-[[3-(trifluoromethyl)phenyl]sulfonyl]-tetrahydro-pyran-2-yl]-2-(trifluoromethyl)-pyrimidine] | 75 to 95%
11 | CC1(S(=O)(=O)c2cccc(C(F)F)c2)CCOC(c2ncc(C(F)(F)F)cc2S(C)(=O)=O)C1 (centres unmarked) [SC-212, 2-[4-[[3-(Difluoro-methyl)-phenyl]sulfonyl]-4-methyl-tetrahydro-pyran-2-yl]-3-methylsulfonyl-5-(trifluoromethyl)-pyridine] | 75 to 95%
12 | CC1(S(=O)(=O)c2cccc(S(C)(=O)=O)c2)CCOC(c2ncc(C(F)(F)F)cc2S(C)(=O)=O)C1 (centres unmarked) [SC-210, 2-[4-Methyl-4-[(3-methylsulfonyl-phenyl)sulfonyl]-tetrahydro-pyran-2-yl]-3-methylsulfonyl-5-(trifluoromethyl)-pyridine] | > 95%
13 | CC1(S(=O)(=O)c2cccc(C(F)(F)F)c2)CCOC(c2ccc(N3CCCC3)nc2)C1 (centres unmarked) [SC-400, 5-[4-Methyl-4-[[3-(trifluoromethyl)phenyl]sulfonyl]-tetrahydro-pyran-2-yl]-2-pyrrolidin-1-yl-pyridine] | > 95%
14 | CCC1(S(=O)(=O)c2cccc(C(F)(F)F)c2)CCOC(c2cccc(C)n2)C1 (racemic) [SC-303, 2-[4-Ethyl-4-[[3-(trifluoromethyl)phenyl]sulfonyl]-tetrahydro-pyran-2-yl]-6-methyl-pyridine] | 75 to 95%
15 | CC1(S(=O)(=O)c2cccc(C(F)(F)F)c2)CCOC(COc2ccc(C3CC3)nc2)C1 (single isomer, unassigned) [SC-118, 2-Cyclopropyl-5-[[4-methyl-4-[[3-(trifluoromethyl)phenyl]sulfonyl]-tetrahydro-pyran-2-yl]-methoxy]-pyridine] | > 95%
16 | CC1(S(=O)(=O)c2cccc(C(F)(F)F)c2)CCOC(c2cccc(C(F)(F)F)n2)C1 (racemic) [SC-351, 2-[4-Methyl-4-[[3-(trifluoromethyl)phenyl]sulfonyl]-tetrahydro-pyran-2-yl]-6-(trifluoromethyl)-pyridine] | > 95%
17 | CC1(S(=O)(=O)c2cccc(C(F)(F)F)c2)CCOC(c2ncc(C(F)(F)F)cc2Cl)C1 (racemic) [SC-340, 3-Chloro-2-(4-methyl-4-((3-(trifluoromethyl)phenyl)sulfonyl)tetrahydro-2H-pyran-2-yl)-5-(trifluoromethyl)pyridine] | > 95%
18 | CC1(S(=O)(=O)c2cccc(C(F)(F)F)c2)CCOC(c2ncc(C(F)F)cc2Cl)C1 (centres unmarked) [SC-236, 3-Chloro-5-(difluoro-methyl)-2-[4-methyl-4-[[3-(trifluoromethyl)phenyl]sulfonyl]-tetrahydro-pyran-2-yl]-pyridine] | 75 to 95%
19 | CC1(S(=O)(=O)c2cccc(C(F)(F)F)c2)CCOC(c2ccc(Br)nc2)C1 (racemic) [SC-337, 2-Bromo-5-[4-methyl-4-[[3-(trifluoromethyl)phenyl]sulfonyl]-tetrahydro-pyran-2-yl]-pyridine] | > 95%
20 | CCC1(S(=O)(=O)c2cccc(C(F)(F)F)c2)CCOC(c2cnc(C3CC3)cn2)C1 (racemic) [SC-333, 2-Cyclopropyl-5-[4-ethyl-4-[[3-(trifluoromethyl)phenyl]sulfonyl]-tetrahydro-pyran-2-yl]-pyrazine] | > 95%
21 | Cn1nc(C(F)(F)F)cc1C1CC(C)(S(=O)(=O)c2cccc(C(F)(F)F)c2)CCO1 (centres unmarked) [SC-343, 1-Methyl-5-[4-methyl-4-[[3-(trifluoromethyl)phenyl]sulfonyl]-tetrahydro-pyran-2-yl]-3-(trifluoromethyl)-1H-pyrazole] | 75 to 95%
22 | CCC1(S(=O)(=O)c2cccc(C(F)(F)F)c2)CCOC(c2noc(C3CC3)n2)C1 (centres unmarked) [SC-238, 5-Cyclopropyl-3-[4-ethyl-4-[[3-(trifluoromethyl)phenyl]sulfonyl]-tetrahydro-pyran-2-yl]-[1,2,4]oxadiazole] | 75 to 95%
23 | CC1(S(=O)(=O)c2cccc(C(F)(F)F)c2)CCOC(c2ccc(C(F)(F)F)cn2)C1 (centres unmarked) [SC-309, 2-[4-Methyl-4-[[3-(trifluoromethyl)phenyl]sulfonyl]-tetrahydro-pyran-2-yl]-5-(trifluoromethyl)-pyridine] | > 95%
24 | CNc1ccc(C2CC(C)(S(=O)(=O)c3cccc(C(F)(F)F)c3)CCO2)cn1 (racemic) [SC-412, Methyl-[5-[4-methyl-4-[[3-(trifluoromethyl)phenyl]sulfonyl]-tetrahydro-pyran-2-yl]-pyridin-2-yl]-amine] | 75 to 95%
25 | CN(C)c1ncc(C2CC(C)(S(=O)(=O)c3cccc(C(F)(F)F)c3)CCO2)cn1 (centres unmarked) [SC-413, Dimethyl-[5-[4-methyl-4-[[3-(trifluoromethyl)phenyl]sulfonyl]-tetrahydro-pyran-2-yl]-pyrimidin-2-yl]-amine] | 75 to 95%
26 | Cc1ccc(C2CC(S(=O)(=O)c3cccc(C(F)(F)F)c3)CCO2)c(C)n1 (centres unmarked) [SC-335, 2,6-Dimethyl-3-[4-[[3-(trifluoromethyl)phenyl]sulfonyl]-tetrahydro-pyran-2-yl]-pyridine] | 40 to 75%
